Experimental data as given in ChEMBL document CHEMBL5528074 (J Med Chem, 2024).
The source made the active and inactive calls. The rule behind the calls is not given here.

Assays:
[1] = test system: U-937; experiment: Cytotoxicity against human U-937 cells measured after 72 hrs by CCK8 method; assay type: functional, cell-based
[2] = test system: Mus musculus; experiment: Antiinflammatory activity against DSS-induced colitis C57BL/6 mouse model assessed as reduction in Il1-beta expression in colon at 3 to 10 mg/kg, po; assay type: functional, organism-based; settings: dose 3-10 mg/kg
[3] = Metabolic stability in human liver microsomes assessed as compound remaining at 1 uM incubated for 60 mins in presence of NADPH/UDPGA by LC-MS/MS analysis; assay type: ADME, Microsome; settings: 1 h
[4] = Metabolic stability in human liver microsomes assessed as half life at 10 uM incubated for 60 mins in presence of NADPH/UDPGA by LC-MS/MS analysis; assay type: ADME, Microsome; settings: 1 h
[5] = Oral bioavailability in C57BL/6 mouse at 3 mg/kg measured upto 24 hrs by LC-MS/MS analysis; assay type: ADME, organism-based; settings: in vivo
[6] = test system: U-937; experiment: Antiinflammatory activity in human U-937 cells assessed as reversal of 7alpha,25-dihydroxycholesterol induced TNFA gene expression at 0.1 to 10 uM incubated for 24 hrs by qPCR analysis; assay type: functional, cell-based; settings: dose 0.1-10 µM
[7] = Toxicity in C57BL/6 mouse assessed as drug tolerance at 3 mg/kg, po by H and E staining based analysis; assay type: organism-based; settings: in vivo
[8] = Toxicity in C57BL/6 mouse assessed as effect on spleen at 3 mg/kg, po by H and E staining based analysis; assay type: organism-based; settings: in vivo
[9] = target: T1, G-protein coupled receptor 183 (Homo sapiens, UniProt P32249); experiment: Antagonist potency at GPR183 (unknown origin) transfected in HEK293 cells by schild plot analysis; assay type: cell-based; settings: read-out: pA2 (converted)
[10] = Metabolic stability in rat liver microsomes assessed as compound remaining at 1 uM incubated for 60 mins in presence of NADPH/UDPGA by LC-MS/MS analysis; assay type: ADME, Microsome; settings: read-out: Stability
[11] = Toxicity in C57BL/6 mouse assessed as effect on kidney at 3 mg/kg, po by H and E staining based analysis; assay type: organism-based; settings: in vivo
[12] = test system: U-937; experiment: Antimigratory activity against human U-937 cells assessed as inhibition of 7alpha,25-dihydroxycholesterol induced cell migration by CCK-8 method; assay type: functional, cell-based
[13] = Half life in C57BL/6 mouse at 1 mg/kg, iv measured upto 24 hrs by LC-MS/MS analysis; assay type: ADME, organism-based; settings: in vivo
[14] = AUC infinity in C57BL/6 mouse at 3 mg/kg, po measured upto 24 hrs by LC-MS/MS analysis; assay type: ADME, organism-based; settings: in vivo
[15] = test system: Mus musculus; experiment: Antiinflammatory activity against DSS-induced colitis C57BL/6 mouse model assessed as amelioration of colonic damage at 3 to 10 mg/kg, po by H and E staining based analysis; assay type: functional, organism-based; settings: dose 3-10 mg/kg
[16] = Metabolic stability in dog liver microsomes assessed as half life at 10 uM incubated for 60 mins in presence of NADPH/UDPGA by LC-MS/MS analysis; assay type: ADME, Canis lupus familiaris, Microsome
[17] = Cmax in C57BL/6 mouse at 1 mg/kg, iv measured upto 24 hrs by LC-MS/MS analysis; assay type: ADME, organism-based; settings: in vivo
[18] = Half life in C57BL/6 mouse at 3 mg/kg, po measured upto 24 hrs by LC-MS/MS analysis; assay type: ADME, organism-based; settings: in vivo
[19] = target: T1, G-protein coupled receptor 183; experiment: Antagonist activity at GPR183 (unknown origin) transfected in HEK293 cells cotransfected with CRE-luciferase plasmid assessed as restoration of luciferase activity preincubated for 30 mins followed by 7alpha,25-dihydroxycholesterol induction and measured after 4 hrs by dual luciferase assay; assay type: functional, cell-based
[20] = test system: Mus musculus; experiment: Antiinflammatory activity against DSS-induced colitis C57BL/6 mouse model assessed as increase in CREB phosphorylation level at 3 to 10 mg/kg, po by immunohistochemical analysis; assay type: functional, organism-based; settings: dose 3-10 mg/kg
[21] = Clearance in C57BL/6 mouse at 1 mg/kg, iv measured upto 24 hrs by LC-MS/MS analysis; assay type: ADME, organism-based; settings: in vivo
[22] = test system: Mus musculus; experiment: Antiinflammatory activity against C57BL/6 mouse assessed as mitigation of DSS induced body weight loss administered as po measured for 10 days; assay type: functional, organism-based; settings: dose 3-10 mg/kg, time 10.0 day
[23] = Metabolic stability in mouse liver microsomes assessed as compound remaining at 1 uM incubated for 60 mins in presence of NADPH/UDPGA by LC-MS/MS analysis; assay type: ADME, Microsome; settings: 1 h
[24] = Metabolic stability in monkey liver microsomes assessed as compound remaining at 1 uM incubated for 60 mins in presence of NADPH/UDPGA by LC-MS/MS analysis; assay type: ADME, Macaca mulatta, Microsome; settings: rhesus monkey, 1 h
[25] = Metabolic stability in mouse liver microsomes assessed as half life at 10 uM incubated for 60 mins in presence of NADPH/UDPGA by LC-MS/MS analysis; assay type: ADME, Microsome; settings: 1 h
[26] = target: T1, G-protein coupled receptor 183; experiment: Antagonist activity at GPR183 (unknown origin) transfected in HEK293 cells assessed as reversal of 7alpha,25-Dihydroxycholesterol induced cAMP reduction incubated for 30 mins by Glosensor cAMP assay; assay type: functional, cell-based
[27] = Metabolic stability in dog liver microsomes assessed as compound remaining at 1 uM incubated for 60 mins in presence of NADPH/UDPGA by LC-MS/MS analysis; assay type: ADME, Canis lupus familiaris, Microsome; settings: read-out: Stability
[28] = Toxicity in C57BL/6 mouse assessed as effect on lung at 3 mg/kg, po by H and E staining based analysis; assay type: organism-based; settings: in vivo
[29] = target: T1, G-protein coupled receptor 183
Description: Antagonist activity at GPR183 (unknown origin) transfected in HEK293 cells incubated for 30 mins by Glosensor cAMP assay

[30] = AUC infinity in C57BL/6 mouse at 1 mg/kg, iv measured upto 24 hrs by LC-MS/MS analysis; assay type: ADME, organism-based; settings: in vivo
[31] = target: T1, G-protein coupled receptor 183; experiment: Antagonist activity at GPR183 (unknown origin) transfected in HEK293 cells co-expressing LgBiT-fused SmBiT-beta-arrestin assessed as reduction in beta-arrestin recruitment using nanoluciferase as substrate incubated for 30 mins by bioluminescence based NanoBiT assay; assay type: functional, cell-based
[32] = test system: Mus musculus; experiment: Antiinflammatory activity against DSS-induced colitis C57BL/6 mouse model assessed as amelioration of inflammatory response at 3 to 10 mg/kg, po by H and E staining based analysis; assay type: functional, organism-based; settings: dose 3-10 mg/kg
[33] = test system: U-937; experiment: Antiinflammatory activity in human U-937 cells assessed as reversal of 7alpha,25-dihydroxycholesterol induced IL1B gene expression at 0.1 to 10 uM incubated for 24 hrs by qPCR analysis; assay type: functional, cell-based; settings: dose 0.1-10 µM
[34] = Toxicity in C57BL/6 mouse assessed as effect on liver at 3 mg/kg, po by H and E staining based analysis; assay type: organism-based; settings: in vivo
[35] = Metabolic stability in monkey liver microsomes assessed as half life at 10 uM incubated for 60 mins in presence of NADPH/UDPGA by LC-MS/MS analysis; assay type: ADME, Macaca mulatta, Microsome; settings: rhesus monkey, 1 h
[36] = test system: Mus musculus; experiment: Antiinflammatory activity against DSS-induced colitis C57BL/6 mouse model assessed as reduction in Tnf-alpha expression in colon at 3 to 10 mg/kg, po; assay type: functional, organism-based; settings: dose 3-10 mg/kg
[37] = Cmax in C57BL/6 mouse at 3 mg/kg, po measured upto 24 hrs by LC-MS/MS analysis; assay type: ADME, organism-based; settings: in vivo
[38] = Apparent volume of distribution in C57BL/6 mouse at 1 mg/kg, iv measured upto 24 hrs by LC-MS/MS analysis; assay type: ADME, organism-based; settings: in vivo, read-out: Vz
[39] = Toxicity in C57BL/6 mouse assessed as effect on heart at 3 mg/kg, po by H and E staining based analysis; assay type: organism-based; settings: in vivo
[40] = test system: Mus musculus; experiment: Antiinflammatory activity against DSS-induced colitis C57BL/6 mouse model assessed as reduction in disease activity index (DAI) score at 3 mg/kg, po measured for 8 days; assay type: functional, organism-based; settings: time 8.0 day

T1 sequence (P32249 whole entry): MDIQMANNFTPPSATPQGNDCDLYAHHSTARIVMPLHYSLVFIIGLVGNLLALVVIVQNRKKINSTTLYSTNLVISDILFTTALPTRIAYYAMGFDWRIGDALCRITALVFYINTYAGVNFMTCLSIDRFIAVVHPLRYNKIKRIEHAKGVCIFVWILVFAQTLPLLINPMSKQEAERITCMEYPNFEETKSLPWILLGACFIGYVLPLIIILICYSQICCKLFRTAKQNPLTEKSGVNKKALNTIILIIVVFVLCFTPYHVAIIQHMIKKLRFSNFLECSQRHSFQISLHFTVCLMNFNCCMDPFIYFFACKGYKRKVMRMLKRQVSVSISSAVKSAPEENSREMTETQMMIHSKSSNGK

Nc1nc2ccc(C(=O)N3CCN(C(=O)/C=C/c4ccc(Br)cc4)CC3)cc2s1
Activity [1]: inactive
Activity [2]: Active
Stability [3]: 98.4%
t1/2 [4]: 2.52 h
bioavailability [5]: 71.1%
Activity [6]: Active
Activity [7]: Non-Toxic
Activity [8]: Non-Toxic
Kb [9]: 0.617 nM
remaining at 1 h, 1 µM [10]: 95.9%
Activity [11]: Non-Toxic
IC50 [12]: 0.73 nM
half-life [13]: 1.61 h
AUC(0-inf) [14]: 4090 ng·h/mL
Activity [15]: Active
half-life at 10 µM [16]: 6.42 h
Cmax [17]: 828 ng/mL
half-life [18]: 2.24 h
IC50 [19]: 1.83 nM
Activity [20]: Active
clearance [21]: 8.72 mL/min/kg
Activity [22]: Dose-Dependent Effect
Stability [23]: 96.2%
Stability [24]: 91.5%
t1/2 [25]: 2.35 h
IC50 [26]: 0.82 nM
remaining at 1 h, 1 µM [27]: 96.5%
Activity [28]: Non-Toxic
IC50 [29]: 0.82 nM
AUC(0-inf) [30]: 1920 ng·h/mL
IC50 [31]: 0.88 nM
Activity [32]: Active
Activity [33]: Active
Activity [34]: Non-Toxic
t1/2 [35]: 1.36 h
Activity [36]: Active
Cmax [37]: 817 ng/mL
Vd [38]: 1.21 L/kg
Activity [39]: Non-Toxic
Activity [40]: Active
